How the values were obtained:
[1] = biological target: Mitogen-activated protein kinase 8 (Homo sapiens) (UniProt P45983); assay: JNK1alpha1(h) Kinase panel; settings: Compound concentration 1.0 uM, tested as the 2H-labelled form
[2] = biological target: Muscarinic acetylcholine receptor M5 (Homo sapiens) (UniProt P08912); settings: Compound concentration 10.0 uM, tested as the 2H-labelled form
[3] = biological target: Serine/threonine-protein kinase BRSK1 (Homo sapiens) (UniProt Q8TDC3); assay: BrSK1(h) Kinase panel; settings: Compound concentration 1.0 uM, tested as the 2H-labelled form
[4] = biological target: Eukaryotic translation initiation factor 2-alpha kinase 1 (Homo sapiens) (UniProt Q9BQI3); assay: HRI(h) Kinase panel; settings: Compound concentration 1.0 uM, tested as the 2H-labelled form
[5] = biological target: Tyrosine-protein kinase Yes (Homo sapiens) (UniProt P07947); assay: Yes(h) Kinase panel; settings: Compound concentration 1.0 uM, tested as the 2H-labelled form
[6] = biological target: Ephrin type-A receptor 4 (Homo sapiens) (UniProt P54764); assay: EphA4(h) Kinase panel; settings: Compound concentration 1.0 uM, tested as the 2H-labelled form
[7] = biological target: Serine/threonine-protein kinase N2 (Homo sapiens) (UniProt Q16513); assay: PRK2(h) Kinase panel; settings: Compound concentration 1.0 uM, tested as the 2H-labelled form
[8] = biological target: Serine/threonine-protein kinase mTOR (Homo sapiens) (UniProt P42345); assay: mTOR(h) Kinase panel; settings: Compound concentration 1.0 uM, tested as the 2H-labelled form
[9] = biological target: Cyclin-dependent kinase 16 (Homo sapiens) (UniProt Q00536); assay: CDK16/cyclinY(h) Kinase panel; settings: Compound concentration 1.0 uM, tested as the 2H-labelled form
[10] = biological target: BMP-2-inducible protein kinase (Homo sapiens) (UniProt Q9NSY1); assay: BIKe(h) Kinase panel; settings: Compound concentration 1.0 uM, tested as the 2H-labelled form
[11] = biological target: cGMP-dependent protein kinase 1 (Homo sapiens) (UniProt Q13976); assay: PKG1alpha (h) Kinase panel; settings: Compound concentration 1.0 uM, tested as the 2H-labelled form
[12] = biological target: Tyrosine-protein kinase Lyn (Homo sapiens) (UniProt P07948); assay: Lyn(h) Kinase panel; settings: Compound concentration 1.0 uM, tested as the 2H-labelled form
[13] = biological target: Ephrin type-B receptor 3 (Homo sapiens) (UniProt P54753); assay: EphB3(h) Kinase panel; settings: Compound concentration 1.0 uM, tested as the 2H-labelled form
[14] = biological target: Cyclin-dependent kinase 18 (Homo sapiens) (UniProt Q07002); assay: CDK18/cyclinY(h) Kinase panel; settings: Compound concentration 1.0 uM, tested as the 2H-labelled form
Chain of Cyclin-dependent kinase 18 (Homo sapiens) (Q07002 whole entry): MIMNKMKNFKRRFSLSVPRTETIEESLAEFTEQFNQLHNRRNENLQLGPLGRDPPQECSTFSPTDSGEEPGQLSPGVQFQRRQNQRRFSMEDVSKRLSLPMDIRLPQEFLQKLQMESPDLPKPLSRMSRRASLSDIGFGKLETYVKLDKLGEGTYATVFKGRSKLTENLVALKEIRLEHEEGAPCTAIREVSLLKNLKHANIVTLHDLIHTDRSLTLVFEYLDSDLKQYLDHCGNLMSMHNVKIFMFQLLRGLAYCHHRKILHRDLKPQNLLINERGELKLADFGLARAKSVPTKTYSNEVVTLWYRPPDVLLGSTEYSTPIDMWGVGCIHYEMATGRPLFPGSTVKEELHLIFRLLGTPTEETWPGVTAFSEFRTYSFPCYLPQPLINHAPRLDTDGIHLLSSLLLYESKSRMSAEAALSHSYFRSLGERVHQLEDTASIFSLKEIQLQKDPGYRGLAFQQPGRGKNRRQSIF

[15] = biological target: Cyclin-dependent kinase 14 (Homo sapiens) (UniProt O94921); assay: CDK14/cyclinY(h) Kinase panel; settings: Compound concentration 1.0 uM, tested as the 2H-labelled form
[16] = biological target: Tyrosine-protein kinase receptor TYRO3 (Homo sapiens) (UniProt Q06418); assay: Rse(h) Kinase panel; settings: Compound concentration 1.0 uM, tested as the 2H-labelled form
[17] = biological target: Ribosomal protein S6 kinase alpha-2 (Homo sapiens) (UniProt Q15349); assay: Rsk3(h) Kinase panel; settings: Compound concentration 1.0 uM, tested as the 2H-labelled form
[18] = biological target: Serine/threonine-protein kinase Chk1 (Homo sapiens) (UniProt O14757); assay: CHK1(h) Kinase panel; settings: Compound concentration 1.0 uM, tested as the 2H-labelled form
[19] = biological target: Eukaryotic elongation factor 2 kinase (Homo sapiens) (UniProt O00418); assay: eEF-2K(h) Kinase panel; settings: Compound concentration 1.0 uM, tested as the 2H-labelled form
[20] = biological target: Serine/threonine-protein kinase DCLK2 (Homo sapiens) (UniProt Q8N568); assay: DCAMKL2(h) Kinase panel; settings: Compound concentration 1.0 uM, tested as the 2H-labelled form
Chain of Serine/threonine-protein kinase DCLK2 (Homo sapiens) (Q8N568 whole entry): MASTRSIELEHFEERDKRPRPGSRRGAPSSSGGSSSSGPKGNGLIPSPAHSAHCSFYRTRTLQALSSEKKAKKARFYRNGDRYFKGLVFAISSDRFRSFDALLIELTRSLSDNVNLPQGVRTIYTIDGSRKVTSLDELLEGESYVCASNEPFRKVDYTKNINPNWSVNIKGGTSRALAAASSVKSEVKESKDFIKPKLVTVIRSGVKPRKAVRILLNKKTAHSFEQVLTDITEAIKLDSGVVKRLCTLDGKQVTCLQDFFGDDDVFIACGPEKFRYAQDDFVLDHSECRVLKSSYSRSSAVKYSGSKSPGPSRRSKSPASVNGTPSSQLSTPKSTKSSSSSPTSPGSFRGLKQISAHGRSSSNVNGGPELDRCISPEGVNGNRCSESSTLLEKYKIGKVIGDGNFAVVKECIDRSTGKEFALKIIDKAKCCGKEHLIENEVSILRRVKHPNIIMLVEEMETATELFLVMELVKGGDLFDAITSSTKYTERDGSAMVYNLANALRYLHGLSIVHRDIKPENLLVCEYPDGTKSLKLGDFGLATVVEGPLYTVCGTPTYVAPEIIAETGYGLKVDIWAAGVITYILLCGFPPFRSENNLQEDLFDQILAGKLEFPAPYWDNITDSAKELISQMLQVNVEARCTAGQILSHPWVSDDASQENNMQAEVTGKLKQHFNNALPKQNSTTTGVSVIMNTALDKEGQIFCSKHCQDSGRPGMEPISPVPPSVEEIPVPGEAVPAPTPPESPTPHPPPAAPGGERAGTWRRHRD

[21] = biological target: Muscarinic acetylcholine receptor M1 (Homo sapiens) (UniProt P11229); settings: Compound concentration 10.0 uM, tested as the 2H-labelled form
Chain of Muscarinic acetylcholine receptor M1 (Homo sapiens) (P11229 whole entry): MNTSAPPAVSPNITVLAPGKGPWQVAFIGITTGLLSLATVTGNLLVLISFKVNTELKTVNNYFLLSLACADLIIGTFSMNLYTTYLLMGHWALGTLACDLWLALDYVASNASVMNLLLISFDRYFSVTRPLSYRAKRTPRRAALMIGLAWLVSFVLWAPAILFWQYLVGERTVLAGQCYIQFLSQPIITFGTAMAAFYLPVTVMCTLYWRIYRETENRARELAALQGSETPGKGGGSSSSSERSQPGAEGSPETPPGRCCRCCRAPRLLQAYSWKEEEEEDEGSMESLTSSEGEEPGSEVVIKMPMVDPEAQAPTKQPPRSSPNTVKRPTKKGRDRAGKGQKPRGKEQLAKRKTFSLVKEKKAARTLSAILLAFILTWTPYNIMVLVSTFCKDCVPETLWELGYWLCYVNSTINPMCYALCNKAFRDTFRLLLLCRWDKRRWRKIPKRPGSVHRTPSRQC

[22] = biological target: Serine/threonine-protein kinase 4 (Homo sapiens) (UniProt Q13043); assay: MST1(h) Kinase panel; settings: Compound concentration 1.0 uM, tested as the 2H-labelled form
[23] = biological target: Macrophage-stimulating protein receptor (Homo sapiens) (UniProt Q04912); assay: Ron(h) Kinase panel; settings: Compound concentration 1.0 uM, tested as the 2H-labelled form
[24] = biological target: RAC-beta serine/threonine-protein kinase (Homo sapiens) (UniProt P31751); assay: PKBbeta (h) Kinase panel; settings: Compound concentration 1.0 uM, tested as the 2H-labelled form
[25] = biological target: Discoidin domain-containing receptor 2 (Homo sapiens) (UniProt Q16832); assay: DDR2(h) Kinase panel; settings: Compound concentration 1.0 uM, tested as the 2H-labelled form
[26] = biological target: Serine/threonine-protein kinase 25 (Homo sapiens) (UniProt O00506); assay: STK25(h) Kinase panel; settings: Compound concentration 1.0 uM, tested as the 2H-labelled form
[27] = biological target: Vascular endothelial growth factor receptor 1 (Homo sapiens) (UniProt P17948); assay: Flt1(h) Kinase panel; settings: Compound concentration 1.0 uM, tested as the 2H-labelled form
[28] = biological target: FKBP12A/mTOR (Homo sapiens) (UniProt P62942+P42345); assay: mTOR/FKBP12(h) Kinase panel; format: protein-complex assay; settings: Compound concentration 1.0 uM, tested as the 2H-labelled form
Chain of FKBP12A/mTOR (Homo sapiens) (P62942 2-108 limits assumed, other chains not shown): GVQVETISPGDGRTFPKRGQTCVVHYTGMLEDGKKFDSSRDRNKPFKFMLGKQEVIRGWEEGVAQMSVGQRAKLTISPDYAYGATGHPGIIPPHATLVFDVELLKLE

[29] = biological target: D(2) dopamine receptor (Homo sapiens) (UniProt P14416); settings: Compound concentration 10.0 uM, tested as the 2H-labelled form
[30] = biological target: Phosphatidylinositol 3-kinase C2 domain-containing subunit gamma (Homo sapiens) (UniProt O75747); assay: PI3KC2g(h) Kinase panel; settings: Compound concentration 1.0 uM, tested as the 2H-labelled form
[31] = biological target: Serine/threonine-protein kinase Nek7 (Homo sapiens) (UniProt Q8TDX7); assay: NEK7(h) Kinase panel; settings: Compound concentration 1.0 uM, tested as the 2H-labelled form
[32] = biological target: MAP/microtubule affinity-regulating kinase 3 (Homo sapiens) (UniProt P27448); assay: MARK3(h) Kinase panel; settings: Compound concentration 1.0 uM, tested as the 2H-labelled form
[33] = biological target: Cyclin-dependent kinase 9 (Homo sapiens) (UniProt P50750); assay: CDK9/cyclin T1(h) Kinase panel; settings: Compound concentration 1.0 uM, tested as the 2H-labelled form
[34] = biological target: Tyrosine-protein kinase Mer (Homo sapiens) (UniProt Q12866); assay: Mer(h) Kinase panel; settings: Compound concentration 1.0 uM, tested as the 2H-labelled form
[35] = biological target: Wee1-like protein kinase (Homo sapiens) (UniProt P30291); assay: Wee1(h) Kinase panel; settings: Compound concentration 1.0 uM, tested as the 2H-labelled form
[36] = biological target: Serine/threonine-protein kinase 32C (Homo sapiens) (UniProt Q86UX6); assay: STK32C(h) Kinase panel; settings: Compound concentration 1.0 uM, tested as the 2H-labelled form
Chain of Serine/threonine-protein kinase 32C (Homo sapiens) (Q86UX6 whole entry): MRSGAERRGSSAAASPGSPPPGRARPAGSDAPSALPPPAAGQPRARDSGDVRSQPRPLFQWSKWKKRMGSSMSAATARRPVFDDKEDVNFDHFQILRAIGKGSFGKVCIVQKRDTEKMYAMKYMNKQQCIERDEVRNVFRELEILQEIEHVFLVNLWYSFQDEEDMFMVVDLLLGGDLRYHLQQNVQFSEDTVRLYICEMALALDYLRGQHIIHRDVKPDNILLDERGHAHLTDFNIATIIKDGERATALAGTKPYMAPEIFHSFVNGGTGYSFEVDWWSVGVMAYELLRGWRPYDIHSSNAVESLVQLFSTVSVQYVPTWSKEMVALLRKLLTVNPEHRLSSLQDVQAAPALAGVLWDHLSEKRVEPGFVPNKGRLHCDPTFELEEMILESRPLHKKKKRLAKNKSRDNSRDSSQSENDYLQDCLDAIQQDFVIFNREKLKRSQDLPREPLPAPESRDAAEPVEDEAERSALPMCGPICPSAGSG

[37] = biological target: Serine/threonine-protein kinase Nek2 (Homo sapiens) (UniProt P51955); assay: NEK2(h) Kinase panel; settings: Compound concentration 1.0 uM, tested as the 2H-labelled form
Chain of Serine/threonine-protein kinase Nek2 (Homo sapiens) (P51955 whole entry): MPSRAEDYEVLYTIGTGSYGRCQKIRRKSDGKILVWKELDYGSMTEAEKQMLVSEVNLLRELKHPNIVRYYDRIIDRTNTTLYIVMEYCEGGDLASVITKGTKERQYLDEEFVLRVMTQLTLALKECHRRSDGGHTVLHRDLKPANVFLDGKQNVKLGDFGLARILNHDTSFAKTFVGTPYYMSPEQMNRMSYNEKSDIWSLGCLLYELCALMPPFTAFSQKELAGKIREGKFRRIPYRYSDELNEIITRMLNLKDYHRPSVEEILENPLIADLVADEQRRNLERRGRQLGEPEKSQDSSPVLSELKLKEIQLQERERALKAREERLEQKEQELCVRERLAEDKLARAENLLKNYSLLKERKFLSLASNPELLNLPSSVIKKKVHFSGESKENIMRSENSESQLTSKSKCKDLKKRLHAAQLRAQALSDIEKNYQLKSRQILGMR

[38] = biological target: Ribosomal protein S6 kinase alpha-4 (Homo sapiens) (UniProt O75676); assay: MSK2(h) Kinase panel; settings: Compound concentration 1.0 uM, tested as the 2H-labelled form
[39] = biological target: Testis-specific serine/threonine-protein kinase 3 (Homo sapiens) (UniProt Q96PN8); assay: TSSK3(h) Kinase panel; settings: Compound concentration 1.0 uM, tested as the 2H-labelled form
[40] = biological target: Histamine H3 receptor (Homo sapiens) (UniProt Q9Y5N1); settings: Compound concentration 10.0 uM, tested as the 2H-labelled form
Chain of Histamine H3 receptor (Homo sapiens) (Q9Y5N1 whole entry): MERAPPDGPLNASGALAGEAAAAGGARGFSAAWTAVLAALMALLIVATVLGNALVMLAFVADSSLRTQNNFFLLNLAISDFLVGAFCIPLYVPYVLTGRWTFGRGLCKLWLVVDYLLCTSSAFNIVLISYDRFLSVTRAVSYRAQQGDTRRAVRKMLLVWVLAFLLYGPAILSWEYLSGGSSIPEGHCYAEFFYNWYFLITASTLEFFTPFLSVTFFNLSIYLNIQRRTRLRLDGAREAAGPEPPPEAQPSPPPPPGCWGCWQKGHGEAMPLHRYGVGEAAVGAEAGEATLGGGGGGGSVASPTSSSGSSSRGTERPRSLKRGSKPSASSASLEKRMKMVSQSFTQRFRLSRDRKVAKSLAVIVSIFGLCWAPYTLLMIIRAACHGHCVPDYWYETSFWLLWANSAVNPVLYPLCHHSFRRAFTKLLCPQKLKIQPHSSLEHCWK

[41] = biological target: Cyclin-dependent kinase 5 (Homo sapiens) (UniProt Q00535); assay: CDK5/p25(h) Kinase panel; settings: Compound concentration 1.0 uM, tested as the 2H-labelled form
[42] = biological target: Serine/threonine-protein kinase SIK2 (Homo sapiens) (UniProt Q9H0K1); assay: SIK2(h) Kinase panel; settings: Compound concentration 1.0 uM, tested as the 2H-labelled form
[43] = biological target: 5-hydroxytryptamine receptor 3A (Homo sapiens) (UniProt P46098); settings: Compound concentration 10.0 uM, tested as the 2H-labelled form
[44] = biological target: Serine/threonine-protein kinase MRCK alpha (Homo sapiens) (UniProt Q5VT25); assay: MRCKalpha(h) Kinase panel; settings: Compound concentration 1.0 uM, tested as the 2H-labelled form
Chain of Serine/threonine-protein kinase MRCK alpha (Homo sapiens) (Q5VT25 whole entry): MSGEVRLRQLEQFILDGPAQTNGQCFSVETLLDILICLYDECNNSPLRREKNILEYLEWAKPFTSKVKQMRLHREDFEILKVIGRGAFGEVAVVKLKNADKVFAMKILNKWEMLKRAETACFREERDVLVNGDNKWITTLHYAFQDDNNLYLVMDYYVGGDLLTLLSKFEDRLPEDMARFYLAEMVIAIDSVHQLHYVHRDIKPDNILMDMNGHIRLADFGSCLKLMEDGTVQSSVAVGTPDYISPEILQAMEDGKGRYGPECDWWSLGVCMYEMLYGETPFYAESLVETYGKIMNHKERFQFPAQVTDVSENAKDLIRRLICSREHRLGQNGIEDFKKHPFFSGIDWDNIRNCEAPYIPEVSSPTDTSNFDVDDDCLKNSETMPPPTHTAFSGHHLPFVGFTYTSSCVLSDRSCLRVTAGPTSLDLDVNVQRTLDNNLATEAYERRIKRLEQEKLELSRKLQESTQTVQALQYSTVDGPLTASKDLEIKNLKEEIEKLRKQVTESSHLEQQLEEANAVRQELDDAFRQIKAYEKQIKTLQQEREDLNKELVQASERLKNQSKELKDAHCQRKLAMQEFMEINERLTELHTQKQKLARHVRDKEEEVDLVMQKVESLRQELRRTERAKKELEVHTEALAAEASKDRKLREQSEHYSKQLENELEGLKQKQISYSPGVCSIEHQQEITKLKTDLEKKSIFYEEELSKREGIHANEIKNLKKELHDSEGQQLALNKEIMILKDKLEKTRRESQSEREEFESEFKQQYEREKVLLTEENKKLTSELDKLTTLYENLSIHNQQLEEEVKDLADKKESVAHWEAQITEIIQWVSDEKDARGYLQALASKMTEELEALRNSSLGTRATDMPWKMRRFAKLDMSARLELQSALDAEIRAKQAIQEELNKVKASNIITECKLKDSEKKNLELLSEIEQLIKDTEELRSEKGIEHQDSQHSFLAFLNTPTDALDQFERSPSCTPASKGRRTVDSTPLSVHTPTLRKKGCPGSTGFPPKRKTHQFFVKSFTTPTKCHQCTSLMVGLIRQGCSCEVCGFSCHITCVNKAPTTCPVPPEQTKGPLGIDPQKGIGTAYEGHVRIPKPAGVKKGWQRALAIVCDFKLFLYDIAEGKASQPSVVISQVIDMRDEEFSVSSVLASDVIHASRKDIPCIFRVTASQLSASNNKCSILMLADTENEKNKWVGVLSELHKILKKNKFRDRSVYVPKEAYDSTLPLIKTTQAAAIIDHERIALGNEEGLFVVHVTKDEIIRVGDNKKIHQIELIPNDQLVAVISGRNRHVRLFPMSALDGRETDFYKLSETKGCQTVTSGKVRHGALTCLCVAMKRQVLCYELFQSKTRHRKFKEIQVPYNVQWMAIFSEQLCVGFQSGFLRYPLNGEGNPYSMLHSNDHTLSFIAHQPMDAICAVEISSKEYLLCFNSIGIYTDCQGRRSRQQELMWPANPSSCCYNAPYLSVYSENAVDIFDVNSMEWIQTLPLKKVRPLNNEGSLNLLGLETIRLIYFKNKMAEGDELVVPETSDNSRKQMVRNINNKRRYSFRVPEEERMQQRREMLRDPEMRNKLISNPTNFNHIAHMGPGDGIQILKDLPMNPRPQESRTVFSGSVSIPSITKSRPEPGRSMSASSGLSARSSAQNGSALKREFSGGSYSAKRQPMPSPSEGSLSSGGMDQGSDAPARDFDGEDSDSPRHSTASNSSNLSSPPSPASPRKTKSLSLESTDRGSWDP

[45] = biological target: Tyrosine-protein kinase CSK (Homo sapiens) (UniProt P41240); assay: CSK(h) Kinase panel; settings: Compound concentration 1.0 uM, tested as the 2H-labelled form
[46] = biological target: Tyrosine-protein kinase Lck (Homo sapiens) (UniProt P06239); assay: Lck(h) activated Kinase panel; settings: Compound concentration 1.0 uM, tested as the 2H-labelled form
Homo sapiens = species: Homo sapiens; assay: MAPK2(h) Kinase panel; settings: Compound concentration 1.0 uM, tested as the 2H-labelled form
[47] = biological target: Alpha-2A adrenergic receptor (Homo sapiens) (UniProt P08913); settings: Compound concentration 10.0 uM, tested as the 2H-labelled form
[48] = biological target: Platelet-derived growth factor receptor alpha (Homo sapiens) (UniProt P16234); assay: PDGFRalpha(h) Kinase panel; settings: Compound concentration 1.0 uM, tested as the 2H-labelled form
[49] = biological target: Serine/threonine-protein kinase TAO3 (Homo sapiens) (UniProt Q9H2K8); assay: TAO3(h) Kinase panel; settings: Compound concentration 1.0 uM, tested as the 2H-labelled form
[50] = biological target: Phosphatidylinositol 4-phosphate 5-kinase type-1 gamma (Homo sapiens) (UniProt O60331); assay: PIP5K1g(h) Kinase panel; settings: Compound concentration 1.0 uM, tested as the 2H-labelled form
[51] = biological target: Protein kinase C gamma type (Homo sapiens) (UniProt P05129); assay: PKCgamma(h) Kinase panel; settings: Compound concentration 1.0 uM, tested as the 2H-labelled form

Measured: inhibition

CC1(C)Cn2nc(-c3ccc(F)cn3)c(-c3ccnc4[nH]ncc34)c2CO1
inactive: [1] -6% | [2] -5.3% | [3] 13% | [4] -6% | [5] -6% | [6] 0% | [7] -6% | [8] -9% | [9] 12% | [10] -8% | [11] -9% | [12] 21% | [13] 14% | [14] 4% | [15] 9% | [16] 9% | [17] -7% | [18] -6% | [19] 7% | [20] 37% | [21] -1.28% | [22] -4% | [23] 13% | [24] 0% | [25] 8% | [26] 21% | [27] 7% | [28] 5% | [29] 4.12% | [30] -4% | [31] 5% | [32] -2% | [33] -3% | [34] 6% | [35] 10% | [36] 4% | [37] 6% | [38] -1% | [39] 2% | [40] -1.16% | [41] 20% | [42] 0% | [43] 1.04% | [44] 6% | [45] -3% | [46] -10% | Homo sapiens 6% | [47] 15.4% | [48] 2% | [49] 5% | [50] -1% | [51] 3%
